Starred links: 1 amine or outer side, 2 acyl side, 3 side chain; linkers in the order of their positions; H or OH if unused. Positions of bridges follow the written chain, without caps; N, C: chain ends. Non-standard residues stand in square brackets, D forms with d. Residues, ends and D or L forms follow the SMILES beside them. Chains are numbered I, II in the order given. Actinocin(9to1) = Cc1c2oc3c(C)ccc(C(=O)[*:1])c3nc-2c(C(=O)[*:2])c(N)c1=O; NMeV = CN[C@H](C(=O)O)C(C)C; Sar = CNCC(=O)O

The experiment has as its target T1, Dolichyl-diphosphooligosaccharide--protein glycosyltransferase subunit 1 (Saccharomyces cerevisiae, UniProt P41543).
T1 sequence (P41543 whole entry): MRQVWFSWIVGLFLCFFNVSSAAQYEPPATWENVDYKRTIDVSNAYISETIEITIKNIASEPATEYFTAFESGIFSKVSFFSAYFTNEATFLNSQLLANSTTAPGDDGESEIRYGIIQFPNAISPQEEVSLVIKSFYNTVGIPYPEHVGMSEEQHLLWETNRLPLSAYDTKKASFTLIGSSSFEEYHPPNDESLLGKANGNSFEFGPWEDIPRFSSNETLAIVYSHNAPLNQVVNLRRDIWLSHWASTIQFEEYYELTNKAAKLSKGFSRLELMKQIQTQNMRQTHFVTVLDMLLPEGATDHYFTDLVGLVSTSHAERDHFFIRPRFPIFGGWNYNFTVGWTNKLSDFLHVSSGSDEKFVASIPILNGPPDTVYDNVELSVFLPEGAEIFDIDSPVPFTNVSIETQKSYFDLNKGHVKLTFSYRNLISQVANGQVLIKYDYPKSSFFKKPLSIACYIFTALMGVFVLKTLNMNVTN
Briefly: Competition Assay. To be noted: pH 7.5; 0 °C. The source says:
Competition assay using S. cerevisiae oligosaccharyl transferase (OT)with disaccharide donor Dol-P-P-(GlcNAc)2 and the tripeptide substrate Bz-Asn-Leu-Thr-NHMe.
Turning to `O=C(Nc1ccc(C2=NCCN2)cc1)c1ccc(C(=O)Nc2ccc(C3=NCCN3)cc2)c(Cl)c1`, the Ki was determined as 4 µM. This lies in the single-digit micromolar range.

For the compound `COc1ccc(NS(=O)(=O)c2ccc(NC(=O)C(CCSC)NC(N)=O)cc2)cc1` (stereo not drawn) [2-(aminocarbonylamino)-N-[4-[(4-methoxyphenyl)sulfamoyl]phenyl]-4-methylsulfanyl-butanamide], the affinity, expressed as Ki, was 34 µM. Compared with the last compound, the Ki is about 8.5-fold higher.

`COc1ccc(-n2cnnc2SCC(=O)Nc2cc(C)on2)cc1` [2-[[4-(4-methoxyphenyl)-1,2,4-triazol-3-yl]sulfanyl]-N-(5-methyl-1,2-oxazol-3-yl)acetamide]: the inhibition constant (Ki) is 100 µM.

In the case of `Cc1c2oc3c(C)ccc(C(=O)N[C@@H]4C(=O)N[C@H](C(C)C)C(=O)N5CCC[C@H]5C(=O)N(C)CC(=O)N(C)[C@@H](C(C)C)C(=O)O[C@@H]4C)c3nc-2c(C(=O)N[C@@H]2C(=O)N[C@H](C(C)C)C(=O)N3CCC[C@H]3C(=O)N(C)CC(=O)N(C)[C@@H](C(C)C)C(=O)O[C@@H]2C)c(N)c1=O` [2-amino-N,N''-bis[(3R,6S,7R,10S,16S)-3,10-diisopropyl-2,5,9,12,15-pentaketo-7,11,14-trimethyl-8-oxa-1,4,11,14-tetrazabicyclo[14.3.0]nonadecan-6-yl]-3-keto-4,6-dimethyl-phenoxazine-1,9-dicarboxamide] (I: T[dV]P[Sar][NMeV] / II: T[dV]P[Sar][NMeV]; ester I:1-I:C, II:1-II:C; linker I:N-II:N via Actinocin(9to1)), affinity was put at a Ki of 0.041 µM.

In turn, `COc1ccc(OC)c(Nc2nc(NCCCN(C)C)nc(N)c2[N+](=O)[O-])c1` [3-[[4-amino-6-(2,5-dimethoxyanilino)-5-nitro-pyrimidin-2-yl]amino]propyl-dimethyl-amine] had a Ki of 1.1 µM.

`CC[N+](C)(CC)CCCCOc1ccc2c(c1)C(=O)c1cc(OCCCC[N+](C)(CC)CC)ccc1-2` [4-[7-[4-[diethyl(methyl)ammonio]butoxy]-9-keto-fluoren-2-yl]oxybutyl-diethyl-methyl-ammonium;iodide] came in with an inhibition constant (Ki) of 4.5 µM.

Take `COC(=O)c1ccc(O)c2nc3c(C=O)c(O)cc(O)c3nc12` [6-formyl-4,7-dihydroxy-9-keto-5H-phenazine-1-carboxylic acid methyl ester]: the inhibition constant Ki worked out at 0.062 µM.

Regarding `CC(=O)Nc1ccc(NC(=O)c2ccc(Cl)nc2)cc1` [Glycopeptide, 2], the inhibition constant Ki worked out at 2.5 µM. Against the preceding compound, the Ki is about 40-fold higher.

As a reminder, the Ki is a dissociation constant, usually derived from enzyme kinetics or from competition with a known ligand. Read a high Ki as a looser hold on the target.
